# Experimental data taken from patent US20250122253A1, “REGULATING MICROTUBULE DYNAMICS AS A THERAPEUTIC TARGET FOR NERVE REPAIR” (City University of Hong Kong, priority 2023, published 2025).
# Legend:
# hindlimb muscle strength = test: Hindlimb grip strength measurement after sciatic nerve crush; format: in vivo, mice; details: from day 11 to 23
# Protocol: Adult male Fmn2^−/− mice (8-12 weeks old) and their age-matched WT littermates, or adult male C57BL/6 mice (for whole-body X-ray, AAV2/9-Fmn2-shRNA and metaxalone experiments) were trained and habituated one week before the sciatic nerve crush injury. After three independent training sessions (30 minutes per session with two days break), baseline values were taken, and sciatic nerve crush injury were performed one day after the baseline recordings. Function recovery was monitored for 30 days. On day 3 after the sciatic nerve crush, we first perform pinprick assay and followed by motor function assays every other day in a sequential manner (toe spreading, grip strength, and sciatic functional index) with 30 mins apart from each test. Animal behavioural tests were done blinded to the surgery and genotypes.
# Muscle strength from hindlimbs were measured using a grip strength meter (BIO-GS3, Bioseb). To measure the grip strength of both hindlimbs, their hindlimbs were positioned to grip a metal T-bar connected to the grip strength meter, while their forelimbs were rested on a plastic bar. The mice were then gently pulled off from the T-bar. The values at which the mouse left the T-bar reflected the grip strength in grams. The average grip strength was taken from at least 5 consecutive grip strength measurements per animal. […]
# acetylated tubulin = test: Western blot of acetylated tubulin/total tubulin in sciatic nerve segments 0-6 mm distal to the crush site; format: in vivo, mice; details: regenerating axons of sciatic nerves 3 days post-injury
# Protocol: Ipsilateral L4/5 DRG neurons were harvested at various time points following sciatic nerve injury as indicated. Sciatic nerves were harvested 3 days after crush injury and segmented into 0-6 mm distal to the crush site. Each protein sample was pooled from 3 mice. DRG neurons and segmented sciatic nerves were mechanically dissociated with protein lysis buffer, and subjected to measurement of protein concentration using protein BCA assay (Pierce). Protein lysate (30 μg) was separated on 4-12% NuPAGE Tris-Glycine precast gel (Invitrogen). Protein was then transferred onto a PVDF membrane (Bio-Rad) and blocked with 5% non-fat milk (Bio-Rad) in TBS-T. The membrane was incubated with anti-FMN2 (1:500; ProteinTech), anti-phosphorylated HDAC5 (1:500, ThermoFisher), anti-HDAC5 (1:500, Novus Biologicals), anti-acetylated tubulin (1:10,000; Sigma-Aldrich), anti-NeuN (1:500; Millipore), anti-SOX10 (1:500; Abcam), anti-IBA-1 (1:1,000; Wako), anti-GFP (1:1,000; Cell Signaling), and anti-GAPDH antibodies (1:2,000; ProteinTech) as loading controls. The membrane was incubated with secondary antibody conjugated with horseradish peroxidase (1:2,000; Thermo-Fisher). Signals were detected using West Femto Maximum Sensitivity Substrate Kit (Thermo Scientific). […] Band intensities were measured using Image Lab software (Bio-Rad). […]
# [1] = test system: SCG10-positive regenerating axons of sciatic nerve; test: Quantification of in vivo axon regeneration by SCG10 immunostaining (regeneration index); design: species or system mice; details: 3 days post-injury
# Protocol: Mice were perfused transcardially with 4% PFA, and L4/5 DRGs and sciatic nerves were harvested, post-fixed, cryoprotected and frozen in OCT compound (Tissue-Tek). For regenerating axon quantification, 12-μm thick longitudinal serial sections of sciatic nerve were blocked with 0.5% BSA/0.1% Triton X-100 (Sigma-Aldrich), and incubated with anti-SCG10 (a marker for regenerating sensory axons; 1:5,000; Novus Biologicals) primary antibodies. The sections were then incubated with secondary antibody conjugated with Alexa Fluor 555 (1:300; Molecular Probes). A series of z-stack images were taken at 20× magnifications using Nikon AXR confocal microscope equipped with a motorized stage and a resonant scanner, stitched, and maximally projected using NIS-Elements software.
# To quantify regenerating axons, the SCG10 fluorescence intensity was measured at different distal distances away from the crush site using a line scan macro in ImageJ (NIH). A fluorescence intensity profile of SCG10 immunoreactivity was plotted by averaging the SCG10 intensity from 100 neighbouring pixels and normalized to that measured in the crushed site with maximal SCG10 immunoreactivity. For each mouse, at least 3 non-overlapping sections (at least 36 μm apart) were used and averaged from 12-15 sections per genotype or treatment group (n=4-5 per genotype or treatment group).
smiles,measurement,setting,value
Cc1cc(C)cc(OCC2CNC(=O)O2)c1 (stereo not drawn) [metaxalone],hindlimb grip strength recovery vs controls,hindlimb muscle strength; immediate treatment 10 mg/kg,significantly higher
same,"hindlimb grip strength recovery vs controls, delayed treatment","hindlimb muscle strength; treatment delayed 24 hours, 10 mg/kg",significantly higher
same,tubulin acetylation,acetylated tubulin,reduction of tubulin acetylation
same,"regeneration index at the region over 4.5 mm, delayed treatment",[1]; treatment delayed by 24 hours,0.40
same,regeneration index at the region over 4.5 mm,[1]; treatment immediately after injury,0.34
same,number of SCG10-positive regenerating axons at 4.5 mm distal to the crush injury site,[1]; vs vehicle controls,significant increase
